Reference: patent publication US10239832B2, “N-(1-hydroxy-3-(pyrrolidinyl)propan-2-yl)pyrrolidine-3-carboxamide derivatives as glucosylceramide synthase inhibitors” (BIOMARIN PHARMACEUTICAL INC., priority 2013, dated 2019)

biological target: T1, GCS (Canis lupus familiaris, UniProt A0A8I3MXG6); assay: GCS enzymatic assay (MDCK cell lysate, NBD-ceramide to glucosylceramide, LC/MS); assay type: biochemical, canine; settings: Table 2; class symbols A, B, C; the table does not say which of the assays; read-out: Data Range (IC50 values)
T1 construct: endogenous in cells; host or cells: MDCK (Madin-Darby canine kidney) cells, whole-cell lysate
T1 sequence (A0A8I3MXG6 1-394): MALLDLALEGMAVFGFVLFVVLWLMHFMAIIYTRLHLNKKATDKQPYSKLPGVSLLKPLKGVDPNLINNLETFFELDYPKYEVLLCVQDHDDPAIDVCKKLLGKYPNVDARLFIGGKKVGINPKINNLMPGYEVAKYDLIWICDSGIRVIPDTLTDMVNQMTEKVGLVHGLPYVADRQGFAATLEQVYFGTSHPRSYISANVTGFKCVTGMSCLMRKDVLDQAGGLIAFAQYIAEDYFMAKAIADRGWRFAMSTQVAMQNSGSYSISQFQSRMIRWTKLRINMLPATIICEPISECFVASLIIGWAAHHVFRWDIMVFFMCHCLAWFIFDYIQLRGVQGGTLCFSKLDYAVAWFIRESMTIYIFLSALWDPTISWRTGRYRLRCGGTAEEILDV
Method in brief: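 IC50 or percent inhibition came from LC/MS/MS (ESI+, MRM) of NBD-ceramide and glucosylceramide, with tolbutamide as internal standard. The reaction used MDCK (canine) cell lysate as the enzyme source and was ended with acetonitrile. Mock wells received 0.1% DMSO.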

Row | Compound | IC50 [nM]
1 | O=C(N[C@H](CN1CCCC1)[C@H](O)c1ccc(OC2CC2)cc1)[C@@H]1CCN(c2ccc(F)cc2)C1 [Compound 148, (R)-N-((1R,2R)-1-(4-cyclopropoxyphenyl)-1-hydroxy-3-(pyrrolidin-1-yl)propan-2-yl)-1-(4-fluorophenyl)pyrrolidine-3-carboxamide] | 1 to 30
2 | O=C(N[C@H](CN1CCCC1)[C@H](O)c1ccc(OC2CC2)c(Cl)c1)[C@@H]1CCN(c2cccc(Oc3ccc(Cl)cc3)n2)C1 [Compound 112, (R)-N-((1R,2R)-1-(3-chloro-4-cyclopropoxyphenyl)-1-hydroxy-3-(pyrrolidin-1-yl)propan-2-yl)-1-(6-(4-chlorophenoxy)pyridin-2-yl)pyrrolidine-3-carboxamide] | 1 to 30
3 | O=C(N[C@H](CN1CCCC1)[C@H](O)c1ccc2c(c1)OCCO2)[C@@H]1CCN(c2cccc(-c3ccc(F)cc3)n2)C1 [Compound 123, (R)-N-((1R,2R)-1-(2,3-dihydrobenzo[b][1,4]dioxin-6-yl)-1-hydroxy-3-(pyrrolidin-1-yl)propan-2-yl)-1-(6-(4-fluorophenyl)pyridin-2-yl)pyrrolidine-3-carboxamide] | 1 to 30
4 | O=C(N[C@H](CN1CCCC1)[C@H](O)c1ccc(OC2CCCC2)c(Cl)c1)[C@@H]1CCN(c2ccc(Cl)cc2)C1 [Compound 141, (R)-N-((1R,2R)-1-(3-chloro-4-(cyclopentyloxy)phenyl)-1-hydroxy-3-(pyrrolidin-1-yl)propan-2-yl)-1-(4-chlorophenyl)pyrrolidine-3-carboxamide] | 30 to 100
5 | O=C(N[C@H](CN1CCCC1)[C@H](O)c1ccc(OC2CC2)cc1)[C@@H]1CCN(c2ccc(Cl)cc2)C1 [Compound 155, (R)-1-(4-chlorophenyl)-N-((1R,2R)-1-(4-cyclopropoxyphenyl)-1-hydroxy-3-(pyrrolidin-1-yl)propan-2-yl)pyrrolidine-3-carboxamide] | 1 to 30
6 | O=C(N[C@H](CN1CCCC1)[C@H](O)c1ccc(Cl)cc1)[C@@H]1CCN(c2ccc(Cl)cc2)C1 [Compound 156, (R)-1-(4-chlorophenyl)-N((1R,2R)-1-(4-chlorophenyl)-1-hydroxy-3-(pyrrolidin-1-yl)propan-2-yl)pyrrolidine-3-carboxamide] | 100 to 1000
7 | O=C(N[C@H](CN1CCCC1)[C@H](O)c1ccc2c(c1)OCCO2)[C@H]1CCN(c2ccc3ccsc3c2)C1 [Compound 53D, (S)-1-(benzo[b]thiophen-6-yl)-N-((1R,2R)-1-(2,3-dihydrobenzo[b][1,4]dioxin-6-yl)-1-hydroxy-3-(pyrrolidin-1-yl)propan-2-yl)pyrrolidine-3-carboxamide] | 1 to 30
8 | O=C(N[C@H](CN1CCCC1)[C@H](O)c1ccc2c(c1)OC=CO2)[C@@H]1CCN(c2ccc(Cl)cc2)C1 [Compound 143, (R)-N-((1R,2R)-1-(benzo[b][1,4]dioxin-6-yl)-1-hydroxy-3-(pyrrolidin-1-yl)propan-2-yl)-1-(4-chlorophenyl)pyrrolidine-3-carboxamide] | 1 to 30
9 | O=C(N[C@H](CN1CCC1)[C@H](O)c1cc(F)c2c(c1)OCCO2)[C@@H]1CCN(c2ccc3cc(Cl)sc3c2)C1 [Compound 108, (R)-N-((1R,2R)-3-(azetidin-1-yl)-1-(8-fluoro-2,3-dihydrobenzo[b][1,4]dioxin-6-yl)-1-hydroxypropan-2-yl)-1-(2-chlorobenzo[b]thiophen-6-yl)pyrrolidine-3-carboxamide] | 1 to 30
10 | O=C(N[C@H](CN1CCCC1)[C@H](O)c1ccc(OC2CCOCC2)c(Cl)c1)[C@@H]1CCN(c2ccc3ccsc3c2)C1 [Compound 92, (R)-1-(benzo[b]thiophen-6-yl)-N-((1R,2R)-1-(3-chloro-4-((tetrahydro-2H-pyran-4-yl)oxy)phenyl)-1-hydroxy-3-(pyrrolidin-1-yl)propan-2-yl)pyrrolidine-3-carboxamide] | 1 to 30

same assay, conditions: Table 2; class symbols D, E, F, NA (not active); the table does not say which of the assays

Row | Compound | Data Range (% inhibition)
11 | O=C(N[C@H](CN1CCCCC1)[C@H](O)c1cc(F)c2c(c1)OCCO2)[C@@H]1CCN(c2ccc(Cl)cc2)C1 [Compound 44, (R)-1-(4-chlorophenyl)-N-((1R,2R)-1-(8-fluoro-2,3-dihydrobenzo[b][1,4]dioxin-6-yl)-1-hydroxy-3-(piperidin-1-yl)propan-2-yl)pyrrolidine-3-carboxamide] | F (1-49% (or less than 50%))
12 | CC1(C)CCc2cc(N3CCC(C(=O)N[C@H](CN4CCCC4)[C@H](O)c4ccc5c(c4)OCCO5)C3)ccc2O1 (stereo partly drawn) [Compound 64, N-((1R,2R)-1-(2,3-dihydrobenzo[b][1,4]dioxin-6-yl)-1-hydroxy-3-(pyrrolidin-1-yl)propan-2-yl)-1-(2,2-dimethylchroman-6-yl)pyrrolidine-3-carboxamide] | F (1-49% (or less than 50%))
13 | O=C(N[C@H](CN1CCCCC1)[C@H](O)c1ccc2c(c1)OCCO2)[C@H]1CCN(c2ccc(Cl)cc2)C1 [Compound 43E, (S)-1-(4-chlorophenyl)-N-((1R,2R)-1-(2,3-dihydrobenzo[b][1,4]dioxin-6-yl)-1-hydroxy-3-(piperidin-1-yl)propan-2-yl)pyrrolidine-3-carboxamide] | F (1-49% (or less than 50%))
14 | O=C(N[C@H](CN1CCCC1)[C@H](O)c1ccc2c(c1)OCCO2)C1CCN(c2ccc(Cl)c(Cl)c2)C1 (stereo in doubt) [Compound 8, (R)-1-(3,4-dichlorophenyl)-N-((1R,2R)-1-(2,3-dihydrobenzo[b][1,4]dioxin-6-yl)-1-hydroxy-3-(pyrrolidin-1-yl)propan-2-yl)pyrrolidine-3-carboxamide] | D (75-100%)
15 | O=C(N[C@H](CN1CCCC1)[C@H](O)c1ccc2c(c1)OCCO2)C1CCN(C2CCCC2)C1 (stereo partly drawn) [Compound 11, 1-cyclopentyl-N-((1R,2R)-1-(2,3-dihydrobenzo[b][1,4]dioxin-6-yl)-1-hydroxy-3-(pyrrolidin-1-yl)propan-2-yl)pyrrolidine-3-carboxamide] | NA (not active—a negative value was generated for % inhibition)
16 | O=C(N[C@H](CN1CCCC1)[C@H](O)c1ccc(OC2CC2)nc1)[C@H]1CCN(c2ccc(F)cc2)C1 [Compound 27C, (S)-N-((1R,2R)-1-(6-cyclopropoxypyridin-3-yl)-1-hydroxy-3-(pyrrolidin-1-yl)propan-2-yl)-1-(4-fluorophenyl)pyrrolidine-3-carboxamide] | F (1-49% (or less than 50%))
17 | O=C(N[C@H](CN1CCCC1)[C@H](O)c1ccc(OC2COC2)nc1)[C@@H]1CCN(c2ccc(Cl)cc2)C1 [Compound 62, (R)-1-(4-chlorophenyl)-N-((1R,2R)-1-hydroxy-1-(6-(oxetan-3-yloxy)pyridin-3-yl)-3-(pyrrolidin-1-yl)propan-2-yl)pyrrolidine-3-carboxamide] | NA (not active—a negative value was generated for % inhibition)
18 | Cn1ncc2ccc(N3CC[C@@H](C(=O)N[C@H](CN4CCCC4)[C@H](O)c4ccc5c(c4)OCCO5)C3)cc21 [Compound 61, (R)-N-((1R,2R)-1-(2,3-dihydrobenzo[b][1,4]dioxin-6-yl)-1-hydroxy-3-(pyrrolidin-1-yl)propan-2-yl)-1-(1-methyl-1H-indazol-6-yl)pyrrolidine-3-carboxamide] | NA (not active—a negative value was generated for % inhibition)
19 | O=C(N[C@H](CN1CCCC1)[C@H](O)c1ccc2c(c1)OCCO2)[C@H]1CCN(CC2(O)CCOCC2)C1 [Compound 5E, (S)-N-((1R,2R)-1-(2,3-dihydrobenzo[b][1,4]dioxin-6-yl)-1-hydroxy-3-(pyrrolidin-1-yl)propan-2-yl)-1-((4-hydroxytetrahydro-2H-pyran-4-yl)methyl)pyrrolidine-3-carboxamide] | F (1-49% (or less than 50%))
20 | O=C(N[C@H](CN1CCCC1)[C@H](O)c1ccc2c(c1)OCCO2)[C@@H]1CCN(C2Cc3ccccc3C2)C1 [Compound 55, (R)-1-(2,3-dihydro-1H-inden-2-yl)-N-((1R,2R)-1-(2,3-dihydrobenzo[b][1,4]dioxin-6-yl)-1-hydroxy-3-(pyrrolidin-1-yl)propan-2-yl)pyrrolidine-3-carboxamide] | F (1-49% (or less than 50%))
21 | O=C(N[C@H](CN1CCCC1)[C@H](O)c1ccc2c(c1)OCCO2)[C@H]1CCN(c2ccc(Cl)cn2)C1 [Compound 28D, (S)-1-(5-chloropyridin-2-yl)-N-((1R,2R)-1-(2,3-dihydrobenzo[b][1,4]dioxin-6-yl)-1-hydroxy-3-(pyrrolidin-1-yl)propan-2-yl)pyrrolidine-3-carboxamide] | NA (not active—a negative value was generated for % inhibition)
